# The source made the active and inactive calls. The rule behind the calls is not given here.
# What was measured:
# [1] = biological target: Mitogen-activated protein kinase 12 (Homo sapiens) (UniProt P53778); test: Inhibition of recombinant human N-terminal GST-tagged P38gamma (1 to 367 residues) expressed in Escherichia coli assessed as remaining activity at 1 uM using MBP as substrate incubated for 30 mins in presence of [gamma-33P]ATP by filter binding method relative to control
# [2] = biological target: Serine/threonine-protein kinase 3 (Homo sapiens) (UniProt Q13188); test: Inhibition of recombinant human N-terminal GST-tagged MST2 (2 to 491 residues) expressed in baculovirus infected Sf21 cells assessed as remaining activity at 1 uM using MBP as substrate incubated for 30 mins in presence of [gamma-33P]ATP by filter binding method relative to control
# [3] = biological target: Serine/threonine-protein kinase 24 (Homo sapiens) (UniProt Q9Y6E0); test: Inhibition of recombinant human N-terminal GST-tagged MST3 (1 to 431 residues) expressed in baculovirus infected Sf21 cells assessed as remaining activity at 1 uM using MBP as substrate incubated for 30 mins in presence of [gamma-33P]ATP by filter binding method relative to control
# [4] = biological target: Ephrin type-B receptor 2 (Homo sapiens) (UniProt P29323); test: Inhibition of recombinant human N-terminal His6-tagged EPHB2 (560 to 987 residues) expressed in baculovirus infected Sf21 cells assessed as remaining activity at 1 uM using Poly (Glu,Tyr) as substrate incubated for 30 mins in presence of [gamma-33P]ATP by filter binding method relative to control
# [5] = test system: Serine/threonine-protein kinase Sgk1 (Homo sapiens), O00141 [S422D]; conditions: Sf21, dose 1.0 µM, time 30.0 min
# [6] = biological target: MAP kinase-activated protein kinase 5 (Homo sapiens) (UniProt Q8IW41); test: Inhibition of recombinant human His6-tagged PRAK (1 to 471 residues) expressed in baculovirus infected Sf21 cells assessed as remaining activity at 1 uM using phosphorylase b peptide as substrate incubated for 30 mins in presence of [gamma-33P]ATP by filter binding method relative to control
# [7] = biological target: Angiopoietin-1 receptor (Homo sapiens) (UniProt Q02763); test: Inhibition of human TIE2 at 1 uM using polyEY as substrate in presence of 33P-ATP by ProQinase assay
# [8] = biological target: Tyrosine-protein kinase Lck (Homo sapiens) (UniProt P06239); test: Inhibition of human LCK at 1 uM using polyEY as substrate in presence of 33P-ATP by ProQinase assay
# [9] = biological target: Insulin receptor (Homo sapiens) (UniProt P06213); test: Inhibition of human INSR at 1 uM using poly(Ala,Glu,Lys,Tyr) as substrate in presence of 33P-ATP by ProQinase assay
# [10] = biological target: Vascular endothelial growth factor receptor 3 (Homo sapiens) (UniProt P35916); test: Inhibition of human VEGFR3 at 1 uM using polyEY as substrate in presence of 33P-ATP by ProQinase assay
# [11] = biological target: Serine/threonine-protein kinase D2 (Homo sapiens) (UniProt Q9BZL6); test: Inhibition of human PRKD2 at 1 uM using RBER-CHKtide as substrate in presence of 33P-ATP by ProQinase assay
# [12] = biological target: Calcium/calmodulin-dependent protein kinase type II subunit delta (Homo sapiens) (UniProt Q13557); test: Inhibition of human CAMK2D at 1 uM using RBER-CHKtide as substrate in presence of 33P-ATP by ProQinase assay
# [13] = biological target: Tyrosine-protein kinase ABL2 (Homo sapiens) (UniProt P42684); test: Inhibition of human ABL2 at 1 uM using poly(Ala,Glu,Lys,Tyr) as substrate in presence of 33P-ATP by ProQinase assay
# [14] = biological target: Ribosomal protein S6 kinase alpha-5 (Homo sapiens) (UniProt O75582); test: Inhibition of human RPS6KA5 at 1 uM using RBER-CHKtide as substrate in presence of 33P-ATP by ProQinase assay
# [15] = biological target: Discoidin domain-containing receptor 2 (Homo sapiens) (UniProt Q16832); test: Inhibition of human DDR2 at 1 uM using poly(Ala,Glu,Lys,Tyr) as substrate in presence of 33P-ATP by ProQinase assay
# [16] = biological target: Ribosomal protein S6 kinase beta-1 (Homo sapiens) (UniProt P23443); test: Inhibition of human S6K1 at 1 uM using RBER-GSK3 as substrate in presence of 33P-ATP by ProQinase assay
# [17] = biological target: Dual specificity mitogen-activated protein kinase kinase 2 (Homo sapiens) (UniProt P36507); test: Inhibition of human MEK2 at 1 uM using RBER-IRStide as substrate in presence of 33P-ATP by ProQinase assay
# [18] = biological target: Ribosomal protein S6 kinase alpha-1 (Homo sapiens) (UniProt Q15418); test: Inhibition of human RPS6KA1 at 1 uM using RBER-CHKtide as substrate in presence of 33P-ATP by ProQinase assay
# [19] = biological target: cAMP-dependent protein kinase catalytic subunit PRKX (Homo sapiens) (UniProt P51817); test: Inhibition of human PRKX at 1 uM using RBER-GSK3 as substrate in presence of 33P-ATP by ProQinase assay
# [20] = test system: RAF proto-oncogene serine/threonine-protein kinase (Homo sapiens), P04049 [Y340D,Y341D]; test: Inhibition of human RAF1 Y340D/Y341D double mutant at 1 uM using MEK1-K97M as substrate in presence of 33P-ATP by ProQinase assay
# [21] = biological target: Mitogen-activated protein kinase kinase kinase 3 (Homo sapiens) (UniProt Q99759); test: Inhibition of human MEKK3 at 1 uM using casein as substrate in presence of 33P-ATP by ProQinase assay
# [22] = biological target: Myosin light chain kinase, smooth muscle (Homo sapiens) (UniProt Q15746); test: Inhibition of human MYLK at 1 uM using RB-S6P as substrate in presence of 33P-ATP by ProQinase assay
# [23] = biological target: Mitogen-activated protein kinase 13 (Homo sapiens) (UniProt O15264); test: Inhibition of human p38delta at 1 uM using RBER-CHKtide as substrate in presence of 33P-ATP by ProQinase assay
# [24] = biological target: Activin receptor type-2B (Homo sapiens) (UniProt Q13705); test: Inhibition of human ACVR2B at 1 uM using RB-CTF as substrate in presence of 33P-ATP by ProQinase assay
# [25] = biological target: Activin receptor type-1 (Homo sapiens) (UniProt Q04771); test: Inhibition of human ACVR1 at 1 uM using RBER-GSK3 as substrate in presence of 33P-ATP by ProQinase assay
# [26] = biological target: Phosphatidylinositol 4-phosphate 3-kinase C2 domain-containing subunit beta (Homo sapiens, UniProt O00750); test: Inhibition of PI3KC2beta (unknown origin) at 1 uM
# Chain of Mitogen-activated protein kinase kinase kinase 3 (Homo sapiens) (Q99759 whole entry): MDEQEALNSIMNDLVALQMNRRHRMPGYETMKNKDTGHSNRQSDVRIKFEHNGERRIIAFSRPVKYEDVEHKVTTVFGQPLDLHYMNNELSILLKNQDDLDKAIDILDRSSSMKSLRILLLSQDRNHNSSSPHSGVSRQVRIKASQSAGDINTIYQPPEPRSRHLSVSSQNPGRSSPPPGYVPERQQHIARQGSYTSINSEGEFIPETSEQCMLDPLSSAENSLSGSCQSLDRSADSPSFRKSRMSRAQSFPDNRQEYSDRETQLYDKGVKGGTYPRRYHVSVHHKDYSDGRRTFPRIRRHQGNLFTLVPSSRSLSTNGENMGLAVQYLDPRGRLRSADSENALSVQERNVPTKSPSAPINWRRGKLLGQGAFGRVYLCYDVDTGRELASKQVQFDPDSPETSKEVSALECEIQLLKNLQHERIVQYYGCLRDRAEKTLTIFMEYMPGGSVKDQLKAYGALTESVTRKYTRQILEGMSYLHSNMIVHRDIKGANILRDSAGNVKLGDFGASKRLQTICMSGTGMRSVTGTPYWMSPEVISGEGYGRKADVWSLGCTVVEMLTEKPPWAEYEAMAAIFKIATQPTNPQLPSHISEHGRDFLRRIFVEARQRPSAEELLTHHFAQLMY
# Chain of Vascular endothelial growth factor receptor 3 (Homo sapiens) (P35916 whole entry): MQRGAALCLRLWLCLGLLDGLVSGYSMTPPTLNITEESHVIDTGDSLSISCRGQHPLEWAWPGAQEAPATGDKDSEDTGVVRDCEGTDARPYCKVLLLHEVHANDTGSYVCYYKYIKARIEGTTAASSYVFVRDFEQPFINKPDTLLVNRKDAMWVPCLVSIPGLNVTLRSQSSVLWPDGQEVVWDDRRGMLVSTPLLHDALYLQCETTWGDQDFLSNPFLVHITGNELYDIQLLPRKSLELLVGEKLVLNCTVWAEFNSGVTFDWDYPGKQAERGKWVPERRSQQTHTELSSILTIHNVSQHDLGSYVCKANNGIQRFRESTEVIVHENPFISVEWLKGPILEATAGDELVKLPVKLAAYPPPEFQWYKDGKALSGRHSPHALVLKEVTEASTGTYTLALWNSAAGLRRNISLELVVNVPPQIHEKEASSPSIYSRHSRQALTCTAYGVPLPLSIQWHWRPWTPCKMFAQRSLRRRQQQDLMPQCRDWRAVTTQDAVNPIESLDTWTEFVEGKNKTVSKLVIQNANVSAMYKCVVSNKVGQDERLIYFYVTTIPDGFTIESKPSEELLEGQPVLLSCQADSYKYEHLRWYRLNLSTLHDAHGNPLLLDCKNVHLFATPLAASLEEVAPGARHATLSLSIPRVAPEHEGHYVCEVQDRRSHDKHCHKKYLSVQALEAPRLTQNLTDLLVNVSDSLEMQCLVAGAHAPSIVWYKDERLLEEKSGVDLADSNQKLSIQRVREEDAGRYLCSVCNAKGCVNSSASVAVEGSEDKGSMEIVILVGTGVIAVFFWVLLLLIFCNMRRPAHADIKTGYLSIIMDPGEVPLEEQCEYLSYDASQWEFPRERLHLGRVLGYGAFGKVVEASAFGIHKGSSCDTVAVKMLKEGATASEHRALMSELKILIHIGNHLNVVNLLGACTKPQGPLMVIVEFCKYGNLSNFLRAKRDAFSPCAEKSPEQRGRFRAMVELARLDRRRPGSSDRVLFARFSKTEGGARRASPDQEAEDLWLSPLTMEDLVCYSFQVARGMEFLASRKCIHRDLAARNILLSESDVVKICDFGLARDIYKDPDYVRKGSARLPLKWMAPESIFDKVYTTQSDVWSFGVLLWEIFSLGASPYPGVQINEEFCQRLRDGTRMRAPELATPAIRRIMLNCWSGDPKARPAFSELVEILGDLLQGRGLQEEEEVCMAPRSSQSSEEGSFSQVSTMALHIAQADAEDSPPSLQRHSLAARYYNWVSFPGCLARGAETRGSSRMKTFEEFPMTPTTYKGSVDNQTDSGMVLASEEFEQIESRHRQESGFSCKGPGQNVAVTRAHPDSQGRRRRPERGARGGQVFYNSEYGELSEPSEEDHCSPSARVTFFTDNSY
# Chain of Angiopoietin-1 receptor (Homo sapiens) (Q02763 whole entry): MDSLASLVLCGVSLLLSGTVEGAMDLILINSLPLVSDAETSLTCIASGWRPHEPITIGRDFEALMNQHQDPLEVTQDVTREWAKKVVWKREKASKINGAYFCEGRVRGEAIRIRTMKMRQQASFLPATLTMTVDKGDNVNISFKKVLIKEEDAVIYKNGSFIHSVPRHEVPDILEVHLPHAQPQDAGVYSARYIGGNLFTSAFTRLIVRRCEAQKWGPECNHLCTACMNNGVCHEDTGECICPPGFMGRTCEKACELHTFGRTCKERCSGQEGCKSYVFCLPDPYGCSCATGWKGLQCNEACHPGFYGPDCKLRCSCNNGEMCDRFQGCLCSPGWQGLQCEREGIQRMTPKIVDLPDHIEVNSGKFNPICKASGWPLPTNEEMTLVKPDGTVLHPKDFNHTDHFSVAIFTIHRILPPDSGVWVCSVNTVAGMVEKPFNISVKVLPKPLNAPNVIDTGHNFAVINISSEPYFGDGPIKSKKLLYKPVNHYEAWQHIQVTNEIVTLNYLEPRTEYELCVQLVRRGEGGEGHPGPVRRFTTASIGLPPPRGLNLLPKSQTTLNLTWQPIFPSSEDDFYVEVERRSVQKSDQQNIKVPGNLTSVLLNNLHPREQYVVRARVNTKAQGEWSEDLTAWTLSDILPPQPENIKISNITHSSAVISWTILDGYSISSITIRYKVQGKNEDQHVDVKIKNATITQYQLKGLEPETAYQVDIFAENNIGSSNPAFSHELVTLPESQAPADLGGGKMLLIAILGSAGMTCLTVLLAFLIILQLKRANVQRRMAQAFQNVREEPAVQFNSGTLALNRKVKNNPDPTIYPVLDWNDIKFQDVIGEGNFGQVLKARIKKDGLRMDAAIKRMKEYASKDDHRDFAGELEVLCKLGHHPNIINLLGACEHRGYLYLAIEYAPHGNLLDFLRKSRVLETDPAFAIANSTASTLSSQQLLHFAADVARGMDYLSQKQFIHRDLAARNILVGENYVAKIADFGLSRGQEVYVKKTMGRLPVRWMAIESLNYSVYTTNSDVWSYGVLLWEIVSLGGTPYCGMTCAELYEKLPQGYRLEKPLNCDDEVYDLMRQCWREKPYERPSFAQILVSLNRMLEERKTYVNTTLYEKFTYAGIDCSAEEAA
# Chain of MAP kinase-activated protein kinase 5 (Homo sapiens) (Q8IW41 whole entry, the tested form may be a part): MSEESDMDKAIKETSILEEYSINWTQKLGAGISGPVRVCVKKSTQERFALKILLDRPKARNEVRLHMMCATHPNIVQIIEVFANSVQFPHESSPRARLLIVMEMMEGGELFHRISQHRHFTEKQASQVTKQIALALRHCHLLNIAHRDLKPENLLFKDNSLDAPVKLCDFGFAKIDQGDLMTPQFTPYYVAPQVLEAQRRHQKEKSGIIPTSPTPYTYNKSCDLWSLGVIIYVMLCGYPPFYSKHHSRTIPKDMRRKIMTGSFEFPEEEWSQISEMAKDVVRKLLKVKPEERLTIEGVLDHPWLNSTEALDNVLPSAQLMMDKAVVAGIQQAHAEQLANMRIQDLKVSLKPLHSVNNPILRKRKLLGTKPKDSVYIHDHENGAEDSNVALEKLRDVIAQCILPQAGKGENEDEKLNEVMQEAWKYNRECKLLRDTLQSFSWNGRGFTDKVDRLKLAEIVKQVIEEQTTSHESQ
# Chain of Serine/threonine-protein kinase D2 (Homo sapiens) (Q9BZL6 whole entry): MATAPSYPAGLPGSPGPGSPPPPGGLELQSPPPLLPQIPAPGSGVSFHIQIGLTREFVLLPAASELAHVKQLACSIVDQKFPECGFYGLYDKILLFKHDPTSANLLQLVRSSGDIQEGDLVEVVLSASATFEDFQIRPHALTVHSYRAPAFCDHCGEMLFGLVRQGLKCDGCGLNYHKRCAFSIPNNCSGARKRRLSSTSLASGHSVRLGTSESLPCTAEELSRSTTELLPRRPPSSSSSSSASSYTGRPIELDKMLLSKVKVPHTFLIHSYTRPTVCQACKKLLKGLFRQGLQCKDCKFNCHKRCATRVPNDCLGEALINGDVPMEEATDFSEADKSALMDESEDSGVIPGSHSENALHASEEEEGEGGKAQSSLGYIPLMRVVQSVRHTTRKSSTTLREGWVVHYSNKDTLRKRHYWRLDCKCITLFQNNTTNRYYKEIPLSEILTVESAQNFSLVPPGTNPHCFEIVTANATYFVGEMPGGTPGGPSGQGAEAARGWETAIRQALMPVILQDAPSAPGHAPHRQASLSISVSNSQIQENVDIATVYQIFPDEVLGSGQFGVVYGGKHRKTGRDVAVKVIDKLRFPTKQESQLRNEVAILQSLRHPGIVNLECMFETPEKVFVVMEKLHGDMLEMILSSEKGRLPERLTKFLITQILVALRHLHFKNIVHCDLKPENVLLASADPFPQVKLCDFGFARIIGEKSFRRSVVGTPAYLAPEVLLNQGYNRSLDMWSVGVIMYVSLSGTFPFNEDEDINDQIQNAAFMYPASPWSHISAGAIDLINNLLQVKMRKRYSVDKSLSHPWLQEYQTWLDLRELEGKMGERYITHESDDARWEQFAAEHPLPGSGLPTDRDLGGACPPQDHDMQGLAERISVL
# Chain of Serine/threonine-protein kinase Sgk1 (Homo sapiens), O00141 [S422D] (O00141 whole entry S422D, the tested form may be a part): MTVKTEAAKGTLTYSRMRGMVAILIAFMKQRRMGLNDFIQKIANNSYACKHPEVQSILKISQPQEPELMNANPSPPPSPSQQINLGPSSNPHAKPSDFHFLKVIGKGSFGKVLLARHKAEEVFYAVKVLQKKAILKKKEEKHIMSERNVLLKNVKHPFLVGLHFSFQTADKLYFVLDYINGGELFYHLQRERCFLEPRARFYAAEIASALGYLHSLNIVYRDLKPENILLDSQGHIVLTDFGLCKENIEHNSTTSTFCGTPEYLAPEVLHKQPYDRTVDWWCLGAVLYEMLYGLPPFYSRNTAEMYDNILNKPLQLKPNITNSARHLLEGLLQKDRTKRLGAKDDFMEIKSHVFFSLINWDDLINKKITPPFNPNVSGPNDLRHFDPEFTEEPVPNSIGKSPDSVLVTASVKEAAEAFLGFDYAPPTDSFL
compound,measurement,setting,value
CC(C)(O)CNc1ncc(-c2ccnc(Nc3ccnc(Cl)c3)n2)c(CC2CC2)n1,Activity,[1],133%
same,Activity,[2],120%
same,Activity,[3],118%
same,Activity,[4],109%
same,Activity,[5],108%
same,Activity,[6],105%
same,inhibition,[7],inactive
same,inhibition,[8],inactive
same,inhibition,[9],inactive
same,inhibition,[10],inactive
same,inhibition,[11],inactive
same,inhibition,[12],inactive
same,inhibition,[13],inactive
same,inhibition,[14],inactive
same,inhibition,[15],inactive
same,inhibition,[16],inactive
same,inhibition,[17],inactive
same,inhibition,[18],inactive
same,inhibition,[19],inactive
same,inhibition,[20],inactive
same,inhibition,[21],inactive
same,inhibition,[22],inactive
same,inhibition,[23],inactive
same,inhibition,[24],inactive
same,inhibition,[25],inactive
same,inhibition,[26],inactive

# Source: ChEMBL document CHEMBL5705899 (Biochem J, 2014)
